Literature values in patent US6653351B2, “Adjuvant chemotherapy for anaplastic gliomas” (priority 2001, dated 2003).
Counter-ions that a name gives are not always drawn.

Settings: in vivo

Row | Structure (SMILES) | crossing of the blood brain barrier
1 | O=NN(CCCl)C(=O)NC1CCCCC1 [Lomustine, 1-(2-chloroethyl)-3-cyclohexyl-1-nitrosourea] | crosses the blood brain barrier
2 | CC[C@]1(O)C[C@H]2CN(CCc3c([nH]c4ccccc34)[C@@](C(=O)OC)(c3cc4c(cc3OC)N(C=O)[C@H]3[C@@](O)(C(=O)OC)[C@H](OC(C)=O)[C@]5(CC)C=CCN6CC[C@]43[C@@H]65)C2)C1 [Vincristine, vincaleukoblastine, a 22-oxo-, sulfate (1:1) (salt)] | does not appear to cross the blood brain barrier
